# Test results: ChEMBL document CHEMBL1201862, “PubChem BioAssay data set” (2004)
#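 Growth conditions: 96-well plates. Treatment: test compound, 48 hours, 5 concentrations. Analysis: linear interpolation between bracketing concentrations; unreached endpoints set to highest concentration. GI50: concentration for 50% inhibition of growth.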 The source made the active and inactive calls. Rule as the data show it: active = GI50 up to about 1.1 µM and inactive = higher.
# How the values were obtained:
# Test in all cases: inhibition of tumour cell growth, NCI panel, 48 h
# HOP-62 = tested on: HOP-62
# MDA-MB-435 = tested on: MDA-MB-435
# SK-OV-3 = tested on: SK-OV-3
# HT-29 = tested on: HT-29
# CAKI-1 = tested on: CAKI-1
# RPMI-8226 = tested on: RPMI-8226
# NCI/ADR-RES = tested on: NCI/ADR-RES
# OVCAR-3 = tested on: OVCAR-3
# HCC 2998 = tested on: HCC 2998
# SK-MEL-5 = tested on: SK-MEL-5
# SK-MEL-28 = tested on: SK-MEL-28
# UO-31 = tested on: UO-31
# SNB-19 = tested on: SNB-19
# RXF 393 = tested on: RXF 393
# OVCAR-4 = tested on: OVCAR-4
# MOLT-4 = tested on: MOLT-4
# SF-295 = tested on: SF-295
# MCF7 = tested on: MCF7
# NCI-H226 = tested on: NCI-H226
# HCT-116 = tested on: HCT-116
# LOX IMVI = tested on: LOX IMVI
# 786-0 = tested on: 786-0
# NCI-H23 = tested on: NCI-H23
# SR = tested on: SR
# TK-10 = tested on: TK-10
# KM12 = tested on: KM12
# NCI-H522 = tested on: NCI-H522
# MDA-N = tested on: MDA-N
# COLO 205 = tested on: COLO 205
# SF-539 = tested on: SF-539
# UACC-257 = tested on: UACC-257
# A549 = tested on: A549
# SN12C = tested on: SN12C
# ACHN = tested on: ACHN
# SW-620 = tested on: SW-620
# HL-60 = tested on: HL-60
# SNB-75 = tested on: SNB-75
# EKVX = tested on: EKVX
# HCT-15 = tested on: HCT-15
# HOP-92 = tested on: HOP-92
# IGROV-1 = tested on: IGROV-1
# SF-268 = tested on: SF-268
# SK-MEL-2 = tested on: SK-MEL-2
# T47D = tested on: T47D
# NCI-H460 = tested on: NCI-H460
# Malme-3M = tested on: Malme-3M
# MDA-MB-231 = tested on: MDA-MB-231
# OVCAR-8 = tested on: OVCAR-8
# K562 = tested on: K562
# DU-145 = tested on: DU-145
# Hs-578T = tested on: Hs-578T
# PC-3 = tested on: PC-3
# OVCAR-5 = tested on: OVCAR-5
# UACC-62 = tested on: UACC-62
# M14 = tested on: M14
# U-251 = tested on: U-251
# CCRF-CEM = tested on: CCRF-CEM
structure (smiles),measurement,setting,value
COc1ccc(CCc2ccc(O)c(C(=O)O)c2)cc1OC,GI50,HOP-62,> 100 µM (inactive)
same,GI50,MDA-MB-435,> 100 µM (inactive)
same,GI50,SK-OV-3,> 100 µM (inactive)
same,GI50,HT-29,> 100 µM (inactive)
same,GI50,CAKI-1,32.4 µM (inactive)
same,GI50,RPMI-8226,> 100 µM (inactive)
same,GI50,NCI/ADR-RES,> 100 µM (inactive)
same,GI50,OVCAR-3,> 100 µM (inactive)
same,GI50,HCC 2998,> 100 µM (inactive)
same,GI50,SK-MEL-5,98.9 µM (inactive)
same,GI50,SK-MEL-28,> 100 µM (inactive)
same,GI50,UO-31,> 100 µM (inactive)
same,GI50,SNB-19,> 100 µM (inactive)
same,GI50,RXF 393,63.5 µM (inactive)
same,GI50,OVCAR-4,> 100 µM (inactive)
same,GI50,MOLT-4,59.2 µM (inactive)
same,GI50,SF-295,> 100 µM (inactive)
same,GI50,MCF7,> 100 µM (inactive)
same,GI50,NCI-H226,> 100 µM (inactive)
same,GI50,HCT-116,65.5 µM (inactive)
same,GI50,LOX IMVI,7.5 µM (inactive)
same,GI50,786-0,> 100 µM (inactive)
same,GI50,NCI-H23,> 100 µM (inactive)
same,GI50,SR,> 100 µM (inactive)
same,GI50,TK-10,> 100 µM (inactive)
same,GI50,KM12,> 100 µM (inactive)
same,GI50,NCI-H522,> 100 µM (inactive)
same,GI50,MDA-N,> 100 µM (inactive)
same,GI50,COLO 205,> 100 µM (inactive)
same,GI50,SF-539,37.2 µM (inactive)
same,GI50,UACC-257,> 100 µM (inactive)
same,GI50,A549,> 100 µM (inactive)
same,GI50,SN12C,> 100 µM (inactive)
same,GI50,ACHN,> 100 µM (inactive)
same,GI50,SW-620,> 10 µM (inactive)
same,GI50,HL-60,> 100 µM (inactive)
same,GI50,SNB-75,79.6 µM (inactive)
same,GI50,EKVX,> 100 µM (inactive)
same,GI50,HCT-15,84.1 µM
same,GI50,HOP-92,> 100 µM (inactive)
same,GI50,IGROV-1,> 100 µM (inactive)
same,GI50,SF-268,> 100 µM (inactive)
same,GI50,SK-MEL-2,> 100 µM (inactive)
same,GI50,T47D,> 100 µM (inactive)
same,GI50,NCI-H460,> 100 µM (inactive)
same,GI50,Malme-3M,> 100 µM (inactive)
same,GI50,MDA-MB-231,57.8 µM (inactive)
same,GI50,OVCAR-8,> 100 µM (inactive)
same,GI50,K562,59.7 µM (inactive)
same,GI50,DU-145,> 100 µM (inactive)
same,GI50,Hs-578T,> 100 µM (inactive)
same,GI50,PC-3,> 100 µM (inactive)
same,GI50,OVCAR-5,> 100 µM (inactive)
same,GI50,UACC-62,> 100 µM (inactive)
same,GI50,M14,> 100 µM (inactive)
same,GI50,U-251,> 100 µM (inactive)
same,GI50,CCRF-CEM,50.7 µM (inactive)
